In US20240066027A1 (DOMAIN THERAPEUTICS, priority 2020, published 2024):
Where a name gives a salt, the structure may show the parent alone.

Target: T1, human PAR-2 (hPAR-2) receptor expressed in HEK-293 T cells in an endogenous manner (Homo sapiens, UniProt P55085)
T1 construct: human PAR-2 (hPAR-2) receptor expressed in HEK-293 T cells in an endogenous manner; endogenous in cells; host or cells: HEK-293 T cells
T1 sequence (P55085 26-397): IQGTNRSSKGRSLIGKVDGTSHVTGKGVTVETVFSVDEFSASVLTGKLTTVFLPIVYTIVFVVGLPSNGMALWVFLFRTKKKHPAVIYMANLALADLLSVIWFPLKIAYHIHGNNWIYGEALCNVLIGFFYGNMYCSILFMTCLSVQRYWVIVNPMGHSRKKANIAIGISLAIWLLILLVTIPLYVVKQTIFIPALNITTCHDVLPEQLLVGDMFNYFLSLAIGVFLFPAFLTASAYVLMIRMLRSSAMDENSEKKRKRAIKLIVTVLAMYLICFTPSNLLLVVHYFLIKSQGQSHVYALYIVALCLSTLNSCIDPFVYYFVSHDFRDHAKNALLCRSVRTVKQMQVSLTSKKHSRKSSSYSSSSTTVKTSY
Assay: In vitro human PAR-2 functional antagonist activity using calcium assays (Fluo4AM, FLIPR Tetra)
Assay type: cell-based
Conditions: HEK-293 T cells stimulated by an EC80 of the 2-Furoyl-LIGRLO-NH2 peptide after 10 min incubation with compound; 20 concentrations, duplicate, two independent experiments
Outline: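 Antagonist activity was taken as the decrease in the calcium response to an EC80 of 2-Furoyl-LIGRLO-NH2, measured over 5 min. The agonist was added after a 10 min compound-alone step on the same plate. The HEK-293 T cells express PAR-2 endogenously and were loaded with 1 μM Fluo4AM. Signals were referenced to buffer and EC80-alone controls.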

Cc1cccnc1Cn1cc(-c2ccc(Cl)c(F)c2)c2ccc(C(=O)N3CCN(c4cc(C)c(C(=O)O)c(C)n4)CC3(C)C)nc21 [Example 193, 6-(4-(3-(4-chloro-3-fluorophenyl)-1-((3-methylpyridin-2-yl)methyl)-1H-pyrrolo[2,3-b]pyridine-6-carbonyl)-3,3-dimethylpiperazin-1-yl)-2,4-dimethylnicotinic acid hydrochloride]
IC50: < 20 nM

CC1(C)CN(c2ccc(P(=O)(O)O)cn2)CCN1C(=O)c1ccc2c(-c3ccc(Cl)c(F)c3)cn(C(C)(C)C)c2n1 [Example 194, (6-(4-(1-(tert-butyl)-3-(4-chloro-3-fluorophenyl)-1H-pyrrolo[2,3-b]pyridine-6-carbonyl)-3,3-dimethylpiperazin-1-yl)pyridin-3-yl)phosphonic acid]
IC50: > 10000 nM

CCOP(=O)(O)c1ccc(N2CCN(C(=O)c3ccc4c(-c5ccc(Cl)c(F)c5)cn(C(C)(C)C)c4n3)C(C)(C)C2)nc1 [Example 195, ethyl hydrogen (6-(4-(1-(tert-butyl)-3-(4-chloro-3-fluorophenyl)-1H-pyrrolo[2,3-b]pyridine-6-carbonyl)-3,3-dimethylpiperazin-1-yl)pyridin-3-yl)phosphonate]
IC50: 20 to 10000 nM

CN1C(=O)N(C)C2(CCN(C(=O)c3ccc4c(-c5ccc(Cl)c(F)c5)cn(C(C)(C)C)c4n3)CC2)C1=O [Example 197, 8-(1-(tert-butyl)-3-(4-chloro-3-fluorophenyl)-1H-pyrrolo[2,3-b]pyridine-6-carbonyl)-1,3-dimethyl-1,3,8-triazaspiro[4.5]decane-2,4-dione]
IC50: 20 to 10000 nM

Cc1cc(NC2CCN(C(=O)c3ccc4c(-c5ccc(Cl)c(F)c5)cn(C(C)(C)C)c4n3)CC2C)nc(C)c1C(=O)O (centres unmarked) [Example 198, 6-((1-(1-(tert-butyl)-3-(4-chloro-3-fluorophenyl)-1H-pyrrolo[2,3-b]pyridine-6-carbonyl)-3-methylpiperidin-4-yl)amino)-2,4-dimethylnicotinic acid]
IC50: 20 to 10000 nM

CC(C)(C)n1cc(-c2ccc(Cl)c(F)c2)c2ccc(C(=O)N3CCC4(NC(=O)NC4=O)C(C)(C)C3)nc21 (centres unmarked) [Example 200, 8-(1-(tert-butyl)-3-(4-chloro-3-fluorophenyl)-1H-pyrrolo[2,3-b]pyridine-6-carbonyl)-6,6-dimethyl-1,3,8-triazaspiro[4.5]decane-2,4-dione]
IC50: 20 to 10000 nM

CC(C)(C)n1cc(-c2ccc(Cl)c(F)c2)c2ccc(C(=O)N3CCC4(NC(=O)NC4=O)C(F)(F)C3)nc21 (centres unmarked) [Example 201, 8-(1-(tert-butyl)-3-(4-chloro-3-fluorophenyl)-1H-pyrrolo[2,3-b]pyridine-6-carbonyl)-6,6-difluoro-1,3,8-triazaspiro[4.5]decane-2,4-dione]
IC50: 20 to 10000 nM

CC(C)(C)n1cc(-c2ccc(Cl)c(F)c2)c2ccc(C(=O)N3CCC4(CCC(=O)N4)CC3)nc21 [Example 202, 8-(1-(tert-butyl)-3-(4-chloro-3-fluorophenyl)-1H-pyrrolo[2,3-b]pyridine-6-carbonyl)-1,8-diazaspiro[4.5]decan-2-one]
IC50: 20 to 10000 nM

COC(=O)CC1CCN(C(=O)c2ccc3c(-c4ccc(Cl)c(F)c4)cn(CC(C)C)c3c2)CC1 [Example 203, methyl 2-(1-(3-(4-chloro-3-fluorophenyl)-1-isobutyl-1H-indole-6-carbonyl)piperidin-4-yl)acetate]
IC50: 20 to 10000 nM

CC(C)Cn1cc(-c2ccc(Cl)c(F)c2)c2ccc(C(=O)N3CCC(CC(=O)O)CC3)cc21 [Example 204, 2-(1-(3-(4-chloro-3-fluorophenyl)-1-isobutyl-1H-indole-6-carbonyl)piperidin-4-yl)acetic acid]
IC50: 20 to 10000 nM

Cc1cc(N2CCN(C(=O)c3ccc4c(-c5ccc(Cl)c(F)c5)c(C(F)(F)F)n(CC(C)C)c4n3)C(C)(C)C2)nc(C)c1C(=O)O [Example 205, 6-(4-(3-(4-chloro-3-fluorophenyl)-1-isobutyl-2-(trifluoromethyl)-1H-pyrrolo[2,3-b]pyridine-6-carbonyl)-3,3-dimethylpiperazin-1-yl)-2,4-dimethyinicotinic acid]
IC50: < 20 nM

CC(=O)c1cn(-c2ccc(Cl)c(F)c2)c2ccc(C(=O)N3CCC(CC(=O)O)CC3)cc12 [Example 206, 2-(1-(3-acetyl-1-(4-chloro-3-fluorophenyl)-1H-indole-5-carbonyl)piperidin-4-yl)acetic acid]
IC50: > 10000 nM

CC(C)N1CNC(=O)C12CCN(C(=O)c1ccc3c(-c4ccc(Cl)c(F)c4)cn(C(C)(C)C)c3n1)CC2 [Example 207, 8-(1-(tert-butyl)-3-(4-chloro-3-fluorophenyl)-1H-pyrrolo[2,3-b]pyridine-6-carbonyl)-1-isopropyl-1,3,8-triazaspiro[4.5]decan-4-one]
IC50: < 20 nM

CC(C)(C)n1cc(-c2ccc(Cl)c(F)c2)c2ccc(C(=O)N3CCN(c4cn[nH]c(=O)c4)CC3)nc21 [Example 208, 5-(4-(1-(tert-butyl)-3-(4-chloro-3-fluorophenyl)-1H-pyrrolo[2,3-b]pyridine-6-carbonyl)piperazin-1-yl)pyridazin-3(2H)-one]
IC50: > 10000 nM

CN1CNC(=O)C12CCN(C(=O)c1ccc3c(-c4ccc(Cl)c(F)c4)cn(C(C)(C)C)c3n1)CC2 [Example 209, 8-(1-(tert-butyl)-3-(4-chloro-3-fluorophenyl)-1H-pyrrolo[2,3-b]pyridine-6-carbonyl)-1-methyl-1,3,8-triazaspiro[4.5]decan-4-one]
IC50: > 10000 nM

Cc1cc(N2CCN(C(=O)c3ccc4c(-c5ccc(Cl)c(F)c5)cn(C(C)(C)C)c4n3)C(C)(C)C2)cc(C)c1C(=O)O [Example 210, 4-(4-(1-(tert-butyl)-3-(4-chloro-3-fluorophenyl)-1H-pyrrolo[2,3-b]pyridine-6-carbonyl)-3,3-dimethylpiperazin-1-yl)-2,6-dimethylbenzoic acid]
IC50: < 20 nM

Cc1cc(N2CCN(C(=O)c3ccc4c(-c5ccc(Cl)c(F)c5)cn(C[C@@H]5CCCO5)c4n3)C(C)(C)C2)nc(C)c1C(=O)O [Example 211, (S)-6-(4-(3-(4-chloro-3-fluorophenyl)-1-((tetrahydrofuran-2-yl)methyl)-1H-pyrrolo[2,3-b]pyridine-6-carbonyl)-3,3-dimethylpiperazin-1-yl)-2,4-dimethylnicotinic acid]
IC50: < 20 nM

Cc1cc(N2CCN(C(=O)c3ccc4c(-c5ccc(Cl)c(F)c5)cn(C[C@H]5CCCO5)c4n3)C(C)(C)C2)nc(C)c1C(=O)O [Example 212, (R)-6-(4-(3-(4-chloro-3-fluorophenyl)-1-((tetrahydrofuran-2-yl)methyl)-1H-pyrrolo[2,3-b]pyridine-6-carbonyl)-3,3-dimethylpiperazin-1-yl)-2,4-dimethylnicotinic acid]
IC50: < 20 nM

CC(C)(C)n1cc(-c2ccc(Cl)c(F)c2)c2ccc(C(=O)N3CCS(=O)(=O)CC3)nc21 [Example 214, (1-(tert-butyl)-3-(4-chloro-3-fluorophenyl)-1H-pyrrolo[2,3-b]pyridin-6-yl)(1,1-dioxidothiomorpholino)methanone]
IC50: 20 to 10000 nM

CC1(C)CN(C(=O)CCCCCCC(=O)O)CCN1C(=O)c1ccc2c(-c3ccc(Cl)c(F)c3)cn(C(C)(C)C)c2n1 [Example 215, 8-(4-(1-(tert-butyl)-3-(4-chloro-3-fluorophenyl)-1H-pyrrolo[2,3-b]pyridine-6-carbonyl)-3,3-dimethylpiperazin-1-yl)-8-oxooctanoic acid]
IC50: < 20 nM

CCOC(=O)c1ccc(N2CCN(C(=O)c3ccn4c(-c5ccc(Cl)cc5)nc(C(C)(C)C)c4n3)C(C)(C)C2)nc1 [Example 216, ethyl 6-(4-(8-(tert-butyl)-6-(4-chlorophenyl)imidazo[1,5-a]pyrimidine-2-carbonyl)-3,3-dimethylpiperazin-1-yl)nicotinate]
IC50: > 10000 nM

CC(C)(C)c1nc(-c2ccc(Cl)cc2)n2ccc(C(=O)N3CCN(c4ccc(C(=O)O)cn4)CC3(C)C)nc12 [Example 217, 6-(4-(8-(tert-butyl)-6-(4-chlorophenyl)imidazo[1,5-a]pyrimidine-2-carbonyl)-3,3-dimethylpiperazin-1-yl)nicotinic acid]
IC50: 20 to 10000 nM

CCOC(=O)c1ccc(N2CCN(C(=O)c3ccn4c(-c5ccc(Cl)cc5)nc(CC(C)C)c4c3)C(C)(C)C2)nc1 [Example 218, ethyl 6-(4-(3-(4-chlorophenyl)-1-isobutylimidazo[1,5-a]pyridine-7-carbonyl)-3,3-dimethylpiperazin-1-yl)nicotinate]
IC50: > 10000 nM

CC(C)Cc1nc(-c2ccc(Cl)cc2)n2ccc(C(=O)N3CCN(c4ccc(C(=O)O)cn4)CC3(C)C)cc12 [Example 219, 6-(4-(3-(4-chlorophenyl)-1-isobutylimidazo[1,5-a]pyridine-7-carbonyl)-3,3-dimethylpiperazin-1-yl)nicotinic acid]
IC50: 20 to 10000 nM

Cc1cc(N2CCN(C(=O)c3ccc4c(-c5ccc(C(F)(F)F)c(F)c5)cn(C(C)(C)C)c4n3)C(C)(C)C2)nc(C)c1C(=O)O [Example 220, 6-(4-(1-(tert-butyl)-3-(3-fluoro-4-(trifluoromethyl)phenyl)-1H-pyrrolo[2,3-b]pyridine-6-carbonyl)-3,3-dimethylpiperazin-1-yl)-2,4-dimethylnicotinic acid]
IC50: < 20 nM

CC(C)(C)c1cn(-c2ccc(Cl)c(F)c2)c2ccc(C(=O)N3CCNC(=O)C3(C)C)nc12 [Example 221, 4-(3-(tert-butyl)-1-(4-chloro-3-fluorophenyl)-1H-pyrrolo[3,2-b]pyridine-5-carbonyl)-3,3-dimethylpiperazin-2-one]
IC50: < 20 nM
